A short description of the data set: Solubility (description). It counts as physicochemical. The following applies: for solubility in organic solvent: DMSO / DMF.

Structures are written as SMILES.

As for `O=c1oc2cc(O)ccc2c2ccc(O)cc12` [3,8-dihydroxy-6H-benzo[c]chromen-6-one], the “solubility in organic solvent” value is “soluble in DMSO” and the solubility in water entry was “largely insoluble in water”.

With `O=c1oc2cc(O)ccc2c2ccccc12` [3-hydroxy-6H-benzo[c]chromen-6-one], the “solubility in organic solvent” value was “soluble in DMSO and DMF”; the solubility in water entry is “largely insoluble in water”.
